Laboratory results: US11077090B2, “Compounds and compositions and uses thereof” (Sunovion Pharmaceuticals Inc., priority 2016, dated 2021)

Test system: compound-treated mice
Assay: Neuropharmacological assay (SmartCube): behavioral activity signature and minimal effective dose
Assay type: in vivo
Settings: for minimal effective dose: Mus musculus, ip, MED = dose having 50% or more total activity, read-out: Potency: minimal effective dose (MED); for AD: ADHD (probability of activity signature) / AG: analgesic (probability of activity signature) / AX: anxiolytic (probability of activity signature) / CE: cognitive enhancer (probability of activity signature) / DP: anti-depressant (probability of activity signature) / MS: mood stabilizer (probability of activity signature) / PS: anti-psychotic (probability of activity signature) / SD: sedative hypnotic (probability of activity signature) / UN: uncharacterized CNS activity (probability of activity signature): i.p. 15 min before test, most efficacious dose(s)
From the text: Neurosci. 2011 Sep. 9; 5:103 (doi: 10.3389/fnins.2011.00103) (“Roberds”). As reported in Roberds, because psychiatric diseases generally result from disorders of cell-cell communication or circuitry, intact systems are useful in detecting improvement in disease-relevant endpoints. These endpoints are typically behavioral in nature, often requiring human observation and interpretation. To facilitate testing of multiple compounds for behavioral effects relevant to psychiatric disease, PsychoGenics, Inc. (Tarrytown, N.Y., “PGI”) developed SmartCube™, an automated system in which behaviors of compound-treated mice are captured by digital video and analyzed with computer algorithms. (D. Brunner et al., Drug Discov. Today 2002, 7:S107-S112). PGI Analytical Systems uses data from SmartCube™ to compare the behavioral signature of a test compound to a database of behavioral signatures obtained using a large set of diverse reference compounds. (The composition of the database as well as validation of the method is further described in Roberds). In this way, the neuropharmacological effects of a test compound can be predicted by similarity to major classes of compounds, such as antipsychotics, anxiolytics and antidepressants.
The SmartCube™ system produces an activity signature indicating the probability that the activity of the test compound at the administered dose matches a given class of neuropharmacological agents. (See, e.g., Roberds, FIGS. 2 and 3). The test compound is simultaneously compared against multiple classes of agents; thus, a separate probability is generated for each behavioral effect measured (e.g., anxiolytic activity, analgesic activity, etc.). In the table below, these probabilities are reported for each behavioral effect measured as follows:
where LOQ is the limit of quantification.
Provided compounds were dissolved in a mixture of Pharmasolve™ (N-methyl-2-pyrrolidone), polyethylene glycol and propylene glycol, and were injected i.p. 15 min. before the behavioral test. For each compound, injections were administered at 3 different doses. For each behavioral effect measured, results for the most efficacious dose(s) are presented. In the table below, DP: anti-depressant; AX: anxiolytic; SD: sedative hypnotic; PS: anti-psychotic; MS: mood stabilizer; AD: ADHD; CE: cognitive enhancer; AG: analgesic; UN: uncharacterized CNS activity.
The potency of many of the compounds in the table was also determined in the SmartCube™ system. Test compounds were routinely examined at dose levels of 0.3, 1, 3, 10 and 30 mg per kg (mpk), although the dose range was increased or decreased if necessary to obtain a full dose response curve. A compound's minimal effective dose (MED) is a measure of the compounds potency. The MED was defined as the dose (in mpk) having 50% or more total activity in SmartCube.

SMILES | minimal effective dose [mg/kg] | AD: ADHD (probability of activity signature) | AG: analgesic (probability of activity signature) | AX: anxiolytic (probability of activity signature) | CE: cognitive enhancer (probability of activity signature) | DP: anti-depressant (probability of activity signature) | MS: mood stabilizer (probability of activity signature) | PS: anti-psychotic (probability of activity signature) | SD: sedative hypnotic (probability of activity signature) | UN: uncharacterized CNS activity (probability of activity signature)
N[C@H]1COCc2ccccc21 (single isomer, unassigned) [Example 112] | 10 to 30 | + (LOQ ≤ + <5%) | ++ (5% ≤ ++ <25%) | ++ (5% ≤ ++ <25%) | +++ (25% ≤ +++ <50%) | ++ (5% ≤ ++ <25%) | + (LOQ ≤ + <5%) | ++ (5% ≤ ++ <25%) | + (LOQ ≤ + <5%) | + (LOQ ≤ + <5%)
N[C@@H]1COCc2ccc(F)cc21 (single isomer, unassigned) [Example 113] | 3 to 10 | + (LOQ ≤ + <5%) | ++ (5% ≤ ++ <25%) | ++ (5% ≤ ++ <25%) | ++ (5% ≤ ++ <25%) | ++ (5% ≤ ++ <25%) | + (LOQ ≤ + <5%) | ++ (5% ≤ ++ <25%) | + (LOQ ≤ + <5%) | +++ (25% ≤ +++ <50%)
Cc1ccc2c(c1)[C@H](N)CCOC2 (single isomer, unassigned) [Example 115] | 3 to 10 | + (LOQ ≤ + <5%) | ++ (5% ≤ ++ <25%) | ++ (5% ≤ ++ <25%) | ++ (5% ≤ ++ <25%) | ++ (5% ≤ ++ <25%) | + (LOQ ≤ + <5%) | +++ (25% ≤ +++ <50%) | ++ (5% ≤ ++ <25%) | +++ (25% ≤ +++ <50%)
Cc1ccc2c(c1)[C@@H](N)CCOC2 (single isomer, unassigned) [Example 116] | 3 to 10 | + (LOQ ≤ + <5%) | ++ (5% ≤ ++ <25%) | ++ (5% ≤ ++ <25%) | ++ (5% ≤ ++ <25%) | ++ (5% ≤ ++ <25%) | + (LOQ ≤ + <5%) | ++ (5% ≤ ++ <25%) | +++ (25% ≤ +++ <50%) | +++ (25% ≤ +++ <50%)
N[C@@H]1COCc2ccc(Cl)c(Cl)c21 (single isomer, unassigned) [Example 119] | < 3 | + (LOQ ≤ + <5%) | ++ (5% ≤ ++ <25%) | +++ (25% ≤ +++ <50%) | ++ (5% ≤ ++ <25%) | ++ (5% ≤ ++ <25%) | + (LOQ ≤ + <5%) | ++ (5% ≤ ++ <25%) | ++ (5% ≤ ++ <25%) | ++++ (50% ≤ ++++)
N[C@H]1COCc2ccc(Cl)c(Cl)c21 (single isomer, unassigned) [Example 120] | 3 to 10 | + (LOQ ≤ + <5%) | ++ (5% ≤ ++ <25%) | +++ (25% ≤ +++ <50%) | ++ (5% ≤ ++ <25%) | ++ (5% ≤ ++ <25%) | + (LOQ ≤ + <5%) | ++ (5% ≤ ++ <25%) | ++ (5% ≤ ++ <25%) | ++ (5% ≤ ++ <25%)
COc1ccc2c(c1)[C@H](N)COC2 (single isomer, unassigned) [Example 121] | < 3 | + (LOQ ≤ + <5%) | ++ (5% ≤ ++ <25%) | ++ (5% ≤ ++ <25%) | ++ (5% ≤ ++ <25%) | ++ (5% ≤ ++ <25%) | + (LOQ ≤ + <5%) | ++ (5% ≤ ++ <25%) | ++ (5% ≤ ++ <25%) | +++ (25% ≤ +++ <50%)
COc1ccc2c(c1)[C@@H](N)COC2 (single isomer, unassigned) [Example 122] | < 3 | + (LOQ ≤ + <5%) | ++ (5% ≤ ++ <25%) | +++ (25% ≤ +++ <50%) | +++ (25% ≤ +++ <50%) | ++ (5% ≤ ++ <25%) | + (LOQ ≤ + <5%) | ++ (5% ≤ ++ <25%) | ++ (5% ≤ ++ <25%) | +++ (25% ≤ +++ <50%)
Cc1cc(C)c2c(c1)[C@H](N)COC2 (single isomer, unassigned) [Example 125] | < 3 | + (LOQ ≤ + <5%) | + (LOQ ≤ + <5%) | ++ (5% ≤ ++ <25%) | ++ (5% ≤ ++ <25%) | ++ (5% ≤ ++ <25%) | + (LOQ ≤ + <5%) | ++ (5% ≤ ++ <25%) | ++ (5% ≤ ++ <25%) | ++++ (50% ≤ ++++)
Cc1cc(C)c2c(c1)[C@@H](N)COC2 (single isomer, unassigned) [Example 126] | < 3 | + (LOQ ≤ + <5%) | ++ (5% ≤ ++ <25%) | ++ (5% ≤ ++ <25%) | ++ (5% ≤ ++ <25%) | ++ (5% ≤ ++ <25%) | + (LOQ ≤ + <5%) | +++ (25% ≤ +++ <50%) | + (LOQ ≤ + <5%) | ++++ (50% ≤ ++++)
